Test results as given in the NIST ThermoML archive (doi:10.1016/j.tca.2011.12.010).
Several values for one entry are separate records, joined by “and”; a condition that tells them apart may be missing. Equal values may be shown once.

Experiment: molar heat capacity at constant pressure
Conditions: 101.33 kPa, Small sample (50 mg) DSC

O=[N+]([O-])[O-].O=[N+]([O-])[O-].O=[N+]([O-])[O-].O=[N+]([O-])[O-].[K+].[K+].[Mg+2] [bis-potassium magnesium nitrate]
Conditions	molar heat capacity at constant pressure
298.15 K, Crystal 2	308 J/K/mol
299 K, Crystal 2	308.7 J/K/mol
300 K, Crystal 2	309.8 J/K/mol
301 K, Crystal 2	310.5 J/K/mol
302 K, Crystal 2	310.8 J/K/mol
303 K, Crystal 2	311.5 J/K/mol
304 K, Crystal 2	312.2 J/K/mol
305 K, Crystal 2	312.9 J/K/mol
306 K, Crystal 2	314 J/K/mol
307 K, Crystal 2	314.7 J/K/mol
308 K, Crystal 2	315.7 J/K/mol
309 K, Crystal 2	316.4 J/K/mol
310 K, Crystal 2	317.5 J/K/mol
311 K, Crystal 2	318.5 J/K/mol
312 K, Crystal 2	319.2 J/K/mol
313 K, Crystal 2	319.9 J/K/mol
314 K, Crystal 2	322 J/K/mol
315 K, Crystal 2	322 J/K/mol
316 K, Crystal 2	322.7 J/K/mol
317 K, Crystal 2	323.8 J/K/mol
318 K, Crystal 2	324.8 J/K/mol
319 K, Crystal 2	325.9 J/K/mol
320 K, Crystal 2	326.9 J/K/mol
321 K, Crystal 2	328 J/K/mol
325 K, Crystal 2	329 J/K/mol
326 K, Crystal 2	328 J/K/mol
327 K, Crystal 2	329.7 J/K/mol
328 K, Crystal 2	330.4 J/K/mol
329 K, Crystal 2	331.1 J/K/mol
330 K, Crystal 2	331.1 J/K/mol
331 K, Crystal 2	331.8 J/K/mol
332 K, Crystal 2	332.9 J/K/mol
333 K, Crystal 2	334.3 J/K/mol
334 K, Crystal 2	334.3 J/K/mol
335 K, Crystal 2	334.6 J/K/mol
336 K, Crystal 2	335.3 J/K/mol
337 K, Crystal 2	335.7 J/K/mol
338 K, Crystal 2	336.4 J/K/mol
339 K, Crystal 2	336.7 J/K/mol
340 K, Crystal 2	337.1 J/K/mol
341 K, Crystal 2	338.1 J/K/mol
342 K, Crystal 2	338.5 J/K/mol
343 K, Crystal 2	338.8 J/K/mol
344 K, Crystal 2	339.9 J/K/mol
345 K, Crystal 2	341.3 J/K/mol
346 K, Crystal 2	342 J/K/mol
347 K, Crystal 2	341.6 J/K/mol
348 K, Crystal 2	340.6 J/K/mol
349 K, Crystal 2	340.6 J/K/mol
350 K, Crystal 2	340.9 J/K/mol
351 K, Crystal 2	341.3 J/K/mol
352 K, Crystal 2	342 J/K/mol
353 K, Crystal 2	342.7 J/K/mol
354 K, Crystal 2	343.4 J/K/mol
355 K, Crystal 2	344.1 J/K/mol
356 K, Crystal 2	344.8 J/K/mol
357 K, Crystal 2	345.5 J/K/mol
358 K, Crystal 2	346.2 J/K/mol
359 K, Crystal 2	346.9 J/K/mol
360 K, Crystal 2	347.6 J/K/mol
361 K, Crystal 2	348.3 J/K/mol
362 K, Crystal 2	349.3 J/K/mol
363 K, Crystal 2	350.4 J/K/mol
364 K, Crystal 2	351.4 J/K/mol
365 K, Crystal 2	352.5 J/K/mol
366 K, Crystal 2	353.5 J/K/mol
367 K, Crystal 2	354.6 J/K/mol
368 K, Crystal 2	355.3 J/K/mol
369 K, Crystal 2	356 J/K/mol
370 K, Crystal 2	356.7 J/K/mol
371 K, Crystal 2	357.7 J/K/mol
372 K, Crystal 2	357.8 J/K/mol
373 K, Crystal 2	358.6 J/K/mol
374 K, Crystal 2	360.4 J/K/mol
375 K, Crystal 2	362.7 J/K/mol
376 K, Crystal 2	367.5 J/K/mol
377 K, Crystal 2	372.4 J/K/mol
378 K, Crystal 2	374.9 J/K/mol
379 K, Crystal 2	375.6 J/K/mol
380 K, Crystal 2	375.8 J/K/mol
381 K, Crystal 2	376 J/K/mol
382 K, Crystal 2	376.3 J/K/mol
383 K, Crystal 2	377.7 J/K/mol
384 K, Crystal 2	379.1 J/K/mol
385 K, Crystal 2	380.8 J/K/mol
386 K, Crystal 2	381.9 J/K/mol
387 K, Crystal 2	382.2 J/K/mol
388 K, Crystal 2	382.6 J/K/mol
389 K, Crystal 2	385 J/K/mol
390 K, Crystal 2	386.8 J/K/mol
391 K, Crystal 2	388.2 J/K/mol
392 K, Crystal 2	389.6 J/K/mol
393 K, Crystal 2	391.3 J/K/mol
394 K, Crystal 2	393.8 J/K/mol
395 K, Crystal 2	395.2 J/K/mol
396 K, Crystal 2	397.6 J/K/mol
397 K, Crystal 2	399.7 J/K/mol
398 K, Crystal 2	401.5 J/K/mol
399 K, Crystal 2	403.2 J/K/mol
400 K, Crystal 2	405.3 J/K/mol
401 K, Crystal 2	409.5 J/K/mol
402 K, Crystal 2	412.7 J/K/mol
403 K, Crystal 2	422.1 J/K/mol and 428.4 J/K/mol
403.15 K, Crystal 2	428.4 J/K/mol
404 K, Crystal 2	811 J/K/mol
405 K, Crystal 1	1042.3 J/K/mol
406 K, Crystal 1	900.2 J/K/mol
407 K, Crystal 1	714.4 J/K/mol
408 K, Crystal 1	611.1 J/K/mol
409 K, Crystal 1	562.5 J/K/mol
410 K, Crystal 1	518 J/K/mol
411 K, Crystal 1	464.1 J/K/mol
412 K, Crystal 1	426.3 J/K/mol
413 K, Crystal 1	409.2 J/K/mol
414 K, Crystal 1	403.6 J/K/mol
415 K, Crystal 1	402.9 J/K/mol
415.15 K, Crystal 1	402.9 J/K/mol
416 K, Crystal 1	403.2 J/K/mol
417 K, Crystal 1	403.6 J/K/mol
418 K, Crystal 1	404.3 J/K/mol
419 K, Crystal 1	405.3 J/K/mol
420 K, Crystal 1	406.4 J/K/mol
421 K, Crystal 1	409.2 J/K/mol
422 K, Crystal 1	408.5 J/K/mol
423 K, Crystal 1	407.8 J/K/mol
424 K, Crystal 1	407.3 J/K/mol
425 K, Crystal 1	408.5 J/K/mol
426 K, Crystal 1	406.3 J/K/mol
427 K, Crystal 1	405.9 J/K/mol
428 K, Crystal 1	404.1 J/K/mol
429 K, Crystal 1	403.2 J/K/mol
430 K, Crystal 1	405 J/K/mol and 410 J/K/mol
431 K, Crystal 1	407.1 J/K/mol
432 K, Crystal 1	409.5 J/K/mol
433 K, Crystal 1	412.7 J/K/mol
434 K, Crystal 1	415.1 J/K/mol
435 K, Crystal 1	417.2 J/K/mol
436 K, Crystal 1	419 J/K/mol
437 K, Crystal 1	417.6 J/K/mol
438 K, Crystal 1	420 J/K/mol
439 K, Crystal 1	421.4 J/K/mol
440 K, Crystal 1	425.3 J/K/mol
441 K, Crystal 1	427.7 J/K/mol
442 K, Crystal 1	429.8 J/K/mol
443 K, Crystal 1	431.6 J/K/mol
444 K, Crystal 1	434 J/K/mol
445 K, Crystal 1	436.5 J/K/mol
446 K, Crystal 1	438.9 J/K/mol
447 K, Crystal 1	441.4 J/K/mol
448 K, Crystal 1	444.5 J/K/mol
449 K, Crystal 1	449.1 J/K/mol
450 K, Crystal 1	451.5 J/K/mol
451 K, Crystal 1	454.3 J/K/mol
452 K, Crystal 1	458.9 J/K/mol
453 K, Crystal 1	463.4 J/K/mol
454 K, Crystal 1	469 J/K/mol
455 K, Crystal 1	476 J/K/mol
456 K, Crystal 1	484.1 J/K/mol
457 K, Crystal 1	494.9 J/K/mol
458 K, Crystal 1	508.9 J/K/mol and 511.7 J/K/mol
458.15 K, Crystal 1	511.7 J/K/mol
459 K, Crystal 1	532.4 J/K/mol
460 K, Crystal 1	561.4 J/K/mol
